Changes are numbered by the printed parent chain. Like-named read-outs stand apart in the source and are kept apart here.
Columns and labels:
RET(KD: 658-1114 G810R) = target: T1, RET(KD: 658-1114 G810R) (Homo sapiens, UniProt P07949, G810R); experiment: HiBiT-Degradation, RET G810R degradation assay (Nano-Glo HiBiT Lytic), 293T.165 cells; assay type: cell-based; conditions: for Emax / DC50: 6.0 hours
T1 construct: 658-1114; expressed in transfected cells; host or cells: 293T.165 (293T cells, generated in-house)
T1 sequence (P07949 658-1114 G810R): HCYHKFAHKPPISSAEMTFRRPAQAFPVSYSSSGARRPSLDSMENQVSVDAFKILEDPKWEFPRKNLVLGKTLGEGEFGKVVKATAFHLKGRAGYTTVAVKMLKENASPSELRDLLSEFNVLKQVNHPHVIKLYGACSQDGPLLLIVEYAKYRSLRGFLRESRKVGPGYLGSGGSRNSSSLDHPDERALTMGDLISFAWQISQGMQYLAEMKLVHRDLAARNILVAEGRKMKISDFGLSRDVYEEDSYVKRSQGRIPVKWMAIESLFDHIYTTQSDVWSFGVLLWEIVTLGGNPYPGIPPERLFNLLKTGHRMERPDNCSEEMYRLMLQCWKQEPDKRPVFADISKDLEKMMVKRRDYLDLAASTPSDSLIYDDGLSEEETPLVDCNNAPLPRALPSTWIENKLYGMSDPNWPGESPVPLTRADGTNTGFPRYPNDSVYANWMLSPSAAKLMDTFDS
Summary of the method: (§1)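 HEK293T lines expressing HiBiT-tagged RET kinase domain, wild-type (293T.144) or G810R (293T.165), treated 6 h in duplicate, 11-point half-log series from 10 μM top. Lytic HiBiT luminescence read; DC50 and Emax (% protein remaining) from dose-response curves.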

RET (658-1114) = target: T2, RET (658-1114) (Homo sapiens, UniProt P07949); experiment: HiBiT-Degradation, RET wild-type degradation assay (Nano-Glo HiBiT Lytic), 293T.144 cells; assay type: cell-based; conditions: for Emax / DC50: 6.0 hours
T2 construct: 658-1114; expressed in transfected cells; host or cells: 293T.144 (293T cells, generated in-house)
T2 sequence (P07949 658-1114): T1 sequence (P07949 658-1114 G810R) with R153G
Summary of the method: as §1

[1] = % remaining protein, read-out: 293T.165 RET(KD: 658-1114 G810R) 6.0 hours (Emax)
[2] = half-maximal degradation concentration, read-out: 293T.165 RET(KD: 658-1114 G810R) 6.0 hours (DC50)
[3] = % remaining protein, read-out: 293T.144 RET (658-1114) 6.0 hours (Emax)
[4] = half-maximal degradation concentration, read-out: 293T.144 RET (658-1114) 6.0 hours (DC50)
[5] = HiBiT-Degradation, read-out: 293T.165 RET(KD: 658-1114 G810R) 6.0 hours (DC50)
[6] = HiBiT-Degradation, read-out: 293T.144 RET (658-1114) 6.0 hours (DC50)
[7] = HiBiT-Degradation, read-out: 293T.144 RET (658-1114) 6.0 hours (Emax)
[8] = RET G810R, read-out: HiBiT-Degradation 293T.165 RET(KD: 658-1114 G810R) 6.0 hours (DC50)
[9] = RET G810R, read-out: HiBiT-Degradation 293T.165 RET(KD: 658-1114 G810R) 6.0 hours (Emax)
[10] = RET wild-type, read-out: HiBiT-Degradation 293T.144 RET (658-1114) 6.0 hours (DC50)
[11] = RET wild-type, read-out: HiBiT-Degradation 293T.144 RET (658-1114) 6.0 hours (Emax)

293T.165 RET(KD: 658-1114 G810R) 6.0 hours (IP) [nM] (RET(KD: 658-1114 G810R))	Emax (RET(KD: 658-1114 G810R); [1]) [%]	DC50 (RET(KD: 658-1114 G810R); [2]) [nM]	293T.144 RET (658-1114) 6.0 hours (IP) [nM] (RET (658-1114))	Emax (RET (658-1114); [3]) [%]	DC50 (RET (658-1114); [4]) [nM]	293T.165 RET(KD: 658-1114 G810R) 6.0 hours (Emax) (RET(KD: 658-1114 G810R); HiBiT-Degradation)	293T.165 RET(KD: 658-1114 G810R) 6.0 hours (IP) [nM] (RET(KD: 658-1114 G810R); HiBiT-Degradation)	DC50 (RET(KD: 658-1114 G810R); [5]) [nM]	293T.144 RET (658-1114) 6.0 hours (IP) [nM] (RET (658-1114); HiBiT-Degradation)	DC50 (RET (658-1114); [6]) [nM]	Emax (RET (658-1114); [7]) [%]	HiBiT-Degradation 293T.165 RET(KD: 658-1114 G810R) 6.0 hours (IP) [nM] (RET(KD: 658-1114 G810R); RET G810R)	DC50 (RET(KD: 658-1114 G810R); [8]) [nM]	Emax (RET(KD: 658-1114 G810R); [9]) [%]	HiBiT-Degradation 293T.144 RET (658-1114) 6.0 hours (IP) [nM] (RET (658-1114); RET wild-type)	DC50 (RET (658-1114); [10]) [nM]	Emax (RET (658-1114); [11]) [%]	Compound
	< 30	< 100				++++ (< 30% = ++++)	++++ (< 50 nM = ++++)	< 100	++++ (< 50 nM = ++++)	< 50	< 30							CC(C)NC(=O)C1(C)CCN(c2ccc(-c3cc(-c4ccc(N5CCN(C(=O)CN6CCC(c7ccc(OC8CCC(=O)NC8=O)cc7)CC6)CC5)cc4)cn4ncc(C#N)c34)cn2)CC1 (stereo not drawn) [Compound 48, 1-[5-[3-cyano-6-[4-[4-[2-[4-[4-[(2,6-dioxo-3-piperidyl)oxy]phenyl]-1-piperidyl]acetyl]piperazin-1-yl]phenyl]pyrazolo[1,5-a]pyridin-4-yl]-2-pyridyl]-N-isopropyl-4-methyl-piperidine-4-carboxamide]
	< 30	< 50										++++ (< 50 nM = ++++)	< 50	< 30	++++ (< 50 nM = ++++)	< 50	< 30	CCC1(C(=O)NC2CCC2)CCN(c2ccc(-c3nc(-c4cnn(C5CCN(C(=O)CC6(O)CCN(c7ccc(NC8CCC(=O)NC8=O)cc7F)CC6)CC5)c4)cn4ncc(C#N)c34)cn2)CC1 (stereo not drawn) [Compound 81, 1-[5-[3-cyano-6-[1-[1-[2-[1-[4-[(2,6-dioxo-3-piperidyl)amino]-2-fluoro-phenyl]-4-hydroxy-4-piperidyl]acetyl]-4-piperidyl]pyrazol-4-yl]pyrazolo[1,5-a]pyrazin-4-yl]-2-pyridyl]-N-cyclobutyl-4-ethyl-piperidine-4-carboxamide]
++++ (<50 nM = ++++)	< 30	< 50	++++ (<50 nM = ++++)	< 30	< 50													CCC1(C(=O)NC(C)(C)C)CCN(c2ccc(-c3nc(-c4cnn([C@H]5CC[C@H](N6CCC(c7ccc(N[C@H]8CCC(=O)NC8=O)cc7F)CC6)CC5)c4)cn4ncc(C#N)c34)cn2)CC1 (single isomer, unassigned) [Compound 145]
	< 50	< 50										++++ (< 50 nM = ++++)	< 50	< 50	++++ (< 50 nM = ++++)	< 50	< 30	CCC1(C(=O)NC(C)C)CCN(c2ccc(-c3nc(-c4cnn(C5CCN(C(=O)CC6(O)CCN(c7ccc(N[C@H]8CCC(=O)NC8=O)cc7F)CC6)CC5)c4)cn4ncc(C#N)c34)cn2)CC1 (single isomer, unassigned) [Compound 80]

More lines, now with the values behind:

Compound	293T.165 RET(KD: 658-1114 G810R) 6.0 hours (IP) [nM] (RET(KD: 658-1114 G810R))	Emax (RET(KD: 658-1114 G810R); [1]) [%]	DC50 (RET(KD: 658-1114 G810R); [2]) [nM]	293T.144 RET (658-1114) 6.0 hours (IP) [nM] (RET (658-1114))	Emax (RET (658-1114); [3]) [%]	DC50 (RET (658-1114); [4]) [nM]	293T.165 RET(KD: 658-1114 G810R) 6.0 hours (Emax) (RET(KD: 658-1114 G810R); HiBiT-Degradation)	293T.165 RET(KD: 658-1114 G810R) 6.0 hours (IP) [nM] (RET(KD: 658-1114 G810R); HiBiT-Degradation)	DC50 (RET(KD: 658-1114 G810R); [5]) [nM]	293T.144 RET (658-1114) 6.0 hours (IP) [nM] (RET (658-1114); HiBiT-Degradation)	DC50 (RET (658-1114); [6]) [nM]	Emax (RET (658-1114); [7]) [%]	HiBiT-Degradation 293T.165 RET(KD: 658-1114 G810R) 6.0 hours (IP) [nM] (RET(KD: 658-1114 G810R); RET G810R)	DC50 (RET(KD: 658-1114 G810R); [8]) [nM]	Emax (RET(KD: 658-1114 G810R); [9]) [%]	HiBiT-Degradation 293T.144 RET (658-1114) 6.0 hours (IP) [nM] (RET (658-1114); RET wild-type)	DC50 (RET (658-1114); [10]) [nM]	Emax (RET (658-1114); [11]) [%]
N#Cc1cnn2cc(-c3cnn(C4CCN(C(=O)CC5(O)CCN(c6ccc(NC7CCC(=O)NC7=O)cc6F)CC5)CC4)c3)nc(-c3ccc(N4CCCN(Cc5ccccc5)CC4)nc3)c12 (stereo not drawn) [Compound 108, 4-[6-(4-benzyl-1,4-diazepan-1-yl)-3-pyridyl]-6-[1-[1-[2-[1-[4-[(2,6-dioxo-3-piperidyl)amino]-2-fluoro-phenyl]-4-hydroxy-4-piperidyl]acetyl]-4-piperidyl]pyrazol-4-yl]pyrazolo[1,5-a]pyrazine-3-carbonitrile]	++++ (<50 nM = ++++)	< 30	< 50	++++ (<50 nM = ++++)	< 30	< 50												
CCC1(C(=O)NC2CCC2)CCN(c2ccc(-c3nc(-c4cnn(C5CCN([C@@H]6CCN(c7ccc(N[C@@H]8CCC(=O)NC8=O)cc7F)CC6(F)F)CC5)c4)cn4ncc(C#N)c34)cn2)CC1 (single isomer, unassigned) [Compound 192]	+++ (<100 nM = +++)	< 30	< 100	++++ (<50 nM = ++++)	< 30	< 50												
CC(C)NC(=O)C1(C)CCN(c2ccc(-c3cc(-c4ccc(N5CCN(C(=O)CN6CCC(c7ccc(NC8CCC(=O)NC8=O)cc7)CC6)CC5)cc4)cn4ncc(C#N)c34)cn2)CC1 (stereo not drawn) [Compound 35, 1-(5-(3-Cyano-6-(4-(4-(2-(4-(4-((2,6-dioxopiperidin-3-yl)amino)phenyl)piperidin-1-yl)acetyl)piperazin-1-yl)phenyl)pyrazolo[1,5-a]pyridin-4-yl)pyridin-2-yl)-N-isopropyl-4-methylpiperidine-4-carboxamide]		< 30	< 50				++++ (< 30% = ++++)	++++ (< 50 nM = ++++)	< 50	++++ (< 50 nM = ++++)	< 50	< 30						
N#Cc1cnn2cc(-c3cnn(C4CCN(C(=O)CN5CCC(c6ccc(NC7CCC(=O)NC7=O)cc6F)CC5)CC4)c3)cc(-c3ccc(N4CC5CC(C4)N5Cc4cccnc4)nc3)c12 (stereo not drawn) [Compound 68, 6-[1-[1-[2-[4-[4-[(2,6-dioxo-3-piperidyl)amino]-2-fluoro-phenyl]-1-piperidyl]acetyl]-4-piperidyl]pyrazol-4-yl]-4-[6-[6-(3-pyridylmethyl)-3,6-diazabicyclo[3.1.1]heptan-3-yl]-3-pyridyl]pyrazolo[1,5-a]pyridine-3-carbonitrile]		< 30	< 50										++++ (< 50 nM = ++++)	< 50	< 30	++++ (< 50 nM = ++++)	< 50	< 30
N#Cc1cnn2cc(-c3cnn([C@H]4CC[C@@H](N5CCN(c6ccc(NC7CCC(=O)NC7=O)cc6F)CC5)CC4)c3)nc(-c3ccc(N4C[C@H]5COC[C@@H](C4)N5Cc4ccc(F)cn4)nc3)c12 (single isomer, unassigned) [Compound 151]	++++ (<50 nM = ++++)	< 30	< 50	++++ (<50 nM = ++++)	< 30	< 50												
N#Cc1cnn2cc(-c3ccc(N4CCN(C(=O)CN5CCC(c6ccc(NC7CCC(=O)NC7=O)cc6)CC5)CC4)cc3)cc(-c3ccc(N4CCOCC4)nc3)c12 (stereo not drawn) [Compound 24, 6-(4-(4-(2-(4-(4-((2,6-Dioxopiperidin-3-yl)amino)phenyl)piperidin-1-yl)acetyl)piperazin-1-yl)phenyl)-4-(6-morpholinopyridin-3-yl)pyrazolo[1,5-a]pyridine-3-carbonitrile]		< 50	< 100				+++ (<50% = +++)	++++ (< 50 nM = ++++)	< 100	++++ (< 50 nM = ++++)	< 50	< 30						

Reference: patent US12661410B2, “Compounds for targeted degradation of RET” (C4 Therapeutics, Inc., priority 2020, dated 2026)
